How the values were obtained:
Assay in all cases: relative viability (nuclei count vs DMSO), 5 days (fraction); higher = more cells survive
Seliciclib + Vorinostat = compound: CC[C@H](CO)Nc1nc(NCc2ccccc2)c2ncn(C(C)C)c2n1 [Seliciclib] + O=C(CCCCCCC(=O)Nc1ccccc1)NO [Vorinostat] (partner 1 µM)
In short: (§1)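 Relative viability was taken as the ratio of nuclei in treated wells to nuclei in vehicle wells. Lung cancer cell lines in 1536-well plates received compounds by pin tool one day after seeding, either one drug alone or a fixed anchor-drug dose plus five library-drug doses (not always all listed) in √10 steps. Nuclei were counted on 4× images after 5 days of treatment, and values are medians of duplicate plates.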

Seliciclib + Tozasertib = compound: CC[C@H](CO)Nc1nc(NCc2ccccc2)c2ncn(C(C)C)c2n1 [Seliciclib] + Cc1cc(Nc2cc(N3CCN(C)CC3)nc(Sc3ccc(NC(=O)C4CC4)cc3)n2)n[nH]1 [Tozasertib] (partner 0.1 µM)
In short: as §1

Seliciclib + Crizotinib = compound: CC[C@H](CO)Nc1nc(NCc2ccccc2)c2ncn(C(C)C)c2n1 [Seliciclib] + C[C@@H](Oc1cc(-c2cnn(C3CCNCC3)c2)cnc1N)c1c(Cl)ccc(F)c1Cl [Crizotinib] (partner 1 µM)
In short: as §1

Seliciclib + Navitoclax = compound: CC[C@H](CO)Nc1nc(NCc2ccccc2)c2ncn(C(C)C)c2n1 [Seliciclib] + CC1(C)CCC(c2ccc(Cl)cc2)=C(CN2CCN(c3ccc(C(=O)NS(=O)(=O)c4ccc(N[C@H](CCN5CCOCC5)CSc5ccccc5)c(S(=O)(=O)C(F)(F)F)c4)cc3)CC2)C1 [Navitoclax] (partner 0.5 µM)
In short: as §1

Cell Line	relative viability (Seliciclib + Vorinostat; first compound 0.08 µM)	relative viability (Seliciclib + Vorinostat; first compound 0.253 µM)	relative viability (Seliciclib + Vorinostat; first compound 0.8 µM)	relative viability (Seliciclib + Vorinostat; first compound 2.53 µM)	relative viability (Seliciclib + Vorinostat; first compound 8 µM)	relative viability (Seliciclib + Tozasertib; first compound 0.08 µM)	relative viability (Seliciclib + Tozasertib; first compound 0.253 µM)	relative viability (Seliciclib + Tozasertib; first compound 0.8 µM)	relative viability (Seliciclib + Tozasertib; first compound 2.53 µM)	relative viability (Seliciclib + Tozasertib; first compound 8 µM)	relative viability (Seliciclib + Crizotinib; first compound 0.08 µM)	relative viability (Seliciclib + Crizotinib; first compound 0.253 µM)	relative viability (Seliciclib + Crizotinib; first compound 0.8 µM)	relative viability (Seliciclib + Crizotinib; first compound 2.53 µM)	relative viability (Seliciclib + Crizotinib; first compound 8 µM)	relative viability (Seliciclib + Navitoclax; first compound 0.08 µM)	relative viability (Seliciclib + Navitoclax; first compound 0.253 µM)	relative viability (Seliciclib + Navitoclax; first compound 0.8 µM)	relative viability (Seliciclib + Navitoclax; first compound 2.53 µM)	relative viability (Seliciclib + Navitoclax; first compound 8 µM)
COR-L 105	0.83	0.901	0.859	0.802	0.575	0.423	0.321	0.366	0.346	0.436	0.846	0.698	0.698	0.806	0.6	0.86	0.624	0.597	0.763	0.684
LK-2	0.33	0.253	0.335	0.242	0.204	0.203	0.154	0.17	0.175	0.168	0.246	0.227	0.205	0.227	0.249	0.797	0.648	0.823	0.643	0.536
NCI-H727	1.19	1.25	1.04	0.744	1.07	0.616	0.89	0.528	0.557	0.487	0.813	0.882	0.777	0.829	0.823	0.509	0.494	0.407	0.43	0.309
RERF-LC-KJ	0.698	0.641	0.661	0.55	0.439	0.455	0.537	0.441	0.493	0.457	0.803	0.787	0.785	0.85	0.786	0.759	0.673	0.812	0.804	0.651
NCI-H2023	0.641	0.736	0.649	0.5	0.43	0.393	0.357	0.337	0.36	0.22	0.554	0.578	0.682	0.595	0.555	0.895	0.853	0.967	0.949	0.891
NCI-H322M	0.894	1.03	0.87	0.773	0.521	0.49	0.497	0.474	0.462	0.435	0.85	1.06	0.839	1.06	0.554	1.22	1.34	1.12	1.37	1.24
NCI-H1666	1.01	1	0.978	1.01	0.749	0.684	0.696	0.623	0.561	0.428	1.08	0.953	1.05	0.852	0.46	0.951	1.05	0.909	1.06	0.512
SW 900	0.53	0.701	0.484	0.467	0.35	0.79	0.689	0.488	0.401	0.307	–	–	–	–	–	–	–	–	–	–
NCI-H2087	0.802	0.677	0.686	0.725	0.314	0.252	0.234	0.242	0.231	0.192	0.909	0.833	0.956	0.828	0.846	0.914	0.879	0.991	0.879	0.696
LU99A	0.538	0.383	0.458	0.383	0.455	0.282	0.29	0.32	0.209	0.205	0.477	0.544	0.52	0.422	0.4	0.9	0.671	0.69	0.759	0.711
HCC-366	0.317	0.467	0.377	0.212	0.164	0.135	0.0662	0.155	0.387	0.0931	0.477	0.418	0.497	0.946	0.354	1.01	0.699	1.03	1.17	0.947
EKVX	0.627	0.857	0.553	0.633	0.593	–	0.453	0.372	0.363	0.322	0.743	1.14	0.877	1.11	0.817	0.951	1.1	0.865	0.777	0.702
NCI-H522	0.854	0.84	1.01	0.881	0.744	0.711	0.523	0.547	0.49	0.614	–	–	–	–	–	–	–	–	–	–
NCI-H1755	0.654	0.748	0.696	0.692	0.637	0.617	0.605	0.62	0.502	0.534	0.84	0.85	0.84	0.973	0.854	0.984	0.997	0.998	1.04	0.871
NCI-H647	0.615	0.268	0.639	0.299	0.128	0.278	–	0.262	0.348	0.303	1.07	1.01	1.04	1.29	0.852	1.02	1	1.06	1.12	0.878
LC-2-ad	0.7	0.68	0.671	0.445	0.528	0.55	0.479	0.429	0.426	0.438	0.442	0.456	0.479	0.46	0.404	0.419	0.505	0.379	0.494	0.271
HCC-827	0.845	0.951	0.912	0.77	0.756	0.415	0.413	0.42	0.383	0.324	0.909	0.914	0.911	0.931	0.839	1	1.03	1.01	0.976	0.953
